Here are results for two compounds from US20250034216A1, “STEREOSELECTIVE COVALENT LIGANDS FOR ONCOGENIC AND IMMUNOLOGICAL PROTEINS” (The Scripps Research Institute, priority 2021, published 2025).

Assay [1] addresses T1, PHF5A_C26 (Homo sapiens, UniProt O75533+Q7RTV0).
T1 construct: endogenous in cells
The assay is described as follows: IA-DTB cysteine reactivity profiling. In kind it is binding. The protocol: Sample preparation: Cells (adherent: 15 cm dishes, suspension: 2 million cells/mL) were treated with electrophilic probes in situ for indicated times and concentrations, washed with ice-cold PBS, and flash frozen in liquid nitrogen. Cell pellets were lysed by sonication (8 pulses, 40% power) in 500 μL ice-cold PBS supplemented with cOmplete protease inhibitors (1 tablet/10 mL of PBS). Whole cell lysates protein content was measured using a standard DC protein assay (Bio-Rad) and 500 μL (2 mg/mL protein content) were treated with 5 μL of 10 mM 1A-DTB (in DMSO) for 1 h at ambient temperature with occasional vortexing. Samples were methanol-chloroform precipitated with the addition of 500 μL ice-cold MeOH and 200 μL CHCl3, vortexed, and centrifuged (10 min, 10,000 g). Without disrupting the protein disk, both top and bottom layers were aspirated and the protein disk was washed with 1 mL ice-cold MeOH and centrifuged (10 min, 10,000 g). The pellets were allowed to air dry, and then re-suspended in 90 μL buffer (9 M urea, 10 mM DTT, 50 mM TEAB pH 8.5). […]
Data processing: Cysteine engagement ratios (probe vs DMSO) were calculated for each peptide-spectra match by dividing each TMT reporter ion intensity by the average intensity for the channels corresponding to DMSO treatment. […]

Assay [2] concerns SF3B1 interacting proteins. The assay is described as follows: SF3B1 co-immunoprecipitation-MS. It counts as cell-based, human. The following applies: HEK293T cells, 5 μM WX-02-23 or 10 nM pladienolide B, 3 h. On the procedure: HEK293T cells were treated in situ with DMSO, 5 μM of WX-02-23/WX-02-43, or 10 nM pladienolide B for 3 hours. Cells were harvested, washed with ice-cold PBS, and lysed in ColP lysis buffer (0.5% NP-40, 100 mM EPPS, 150 mM NaCl, cOmplete protease inhibitor). Lysates centrifuged at 16,000 g for 3 minutes, normalized to 2.0 mg/mL and 500 μL of each lysate was aliquoted to a clean eppendorf tube.
Lysates were incubated with 5 μL of anti-IgG or anti-SF3B1 (CST) for 2 hours at 4 C, followed by 1 hour with 25 μL of protein-A agarose beads. Bead were washed twice with ColP lysis buffer, and then twice with 100 mM EPPS, followed by elution with 8 M urea in EPPS at 65 C for 10 min. […] Samples were then trypsinized at 37 C overnight (2 ug of trypsin per sample), then TMT labeled and desalted.

Assay [3] deals with SIINFEKL presentation in E.G7-Ova cells. The assay is described as follows: FACS analysis with citric acid wash. In kind it is cell-based, mouse. The following applies: 4 h treatment, recovery up to 4 h. On the procedure: E.G7-Ova cells (2 million/mL) were treated with compounds for 4 hours, washed with PBS, and then washed with 1 mL of 131 mM citric acid for 2 minutes, quenched with 1 mL 66 mM NaH2PO4, and then washed with PBS 3 times. Cells were then resuspended in warm RPMI and allowed to recover for the indicated period, after which cells were washed with PBS and transferred to 96 well plates for staining. Each well was washed with 200 μL PBS, and then stained for 20 minutes with 50 μL of staining solution: 1:1000 fixable near-IR LIVE/DEAD stain (Invitrogen) and 1:200 dilution of anti-SIINFEKL (BioLegend) or anti-Kb (BioLegend) antibody in FACS buffer (2% FBS in PBS supplemented with PenStrep and sterile filtered). Additional wells were used as unstained or singly-stained controls. After staining, cells were washed with PBS, then fixed in 200 μL 4% paraformaldehyde in PBS for 15 minutes. Cells were resuspended in 75 μL FACS buffer and analyzed on a Novocyte flow cytometer. The corresponding data in FIG. 2J are presented as the average percentage of median fluorescence intensity relative to DMSO treated control±SD from n=4 replicates. The corresponding data in FIG. 2K are presented as the average percentage of MFI relative to DMSO treated control±SD from n=3 replicates. Statistical analysis was performed using GraphPad PRISM Version 9.0.0.

The structures appear in SMILES notation.

T1 sequence (Q7RTV0 whole entry): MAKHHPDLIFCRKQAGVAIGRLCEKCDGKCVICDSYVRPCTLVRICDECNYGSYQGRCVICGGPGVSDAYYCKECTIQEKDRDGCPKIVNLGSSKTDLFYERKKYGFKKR
T1 sequence (O75533 whole entry): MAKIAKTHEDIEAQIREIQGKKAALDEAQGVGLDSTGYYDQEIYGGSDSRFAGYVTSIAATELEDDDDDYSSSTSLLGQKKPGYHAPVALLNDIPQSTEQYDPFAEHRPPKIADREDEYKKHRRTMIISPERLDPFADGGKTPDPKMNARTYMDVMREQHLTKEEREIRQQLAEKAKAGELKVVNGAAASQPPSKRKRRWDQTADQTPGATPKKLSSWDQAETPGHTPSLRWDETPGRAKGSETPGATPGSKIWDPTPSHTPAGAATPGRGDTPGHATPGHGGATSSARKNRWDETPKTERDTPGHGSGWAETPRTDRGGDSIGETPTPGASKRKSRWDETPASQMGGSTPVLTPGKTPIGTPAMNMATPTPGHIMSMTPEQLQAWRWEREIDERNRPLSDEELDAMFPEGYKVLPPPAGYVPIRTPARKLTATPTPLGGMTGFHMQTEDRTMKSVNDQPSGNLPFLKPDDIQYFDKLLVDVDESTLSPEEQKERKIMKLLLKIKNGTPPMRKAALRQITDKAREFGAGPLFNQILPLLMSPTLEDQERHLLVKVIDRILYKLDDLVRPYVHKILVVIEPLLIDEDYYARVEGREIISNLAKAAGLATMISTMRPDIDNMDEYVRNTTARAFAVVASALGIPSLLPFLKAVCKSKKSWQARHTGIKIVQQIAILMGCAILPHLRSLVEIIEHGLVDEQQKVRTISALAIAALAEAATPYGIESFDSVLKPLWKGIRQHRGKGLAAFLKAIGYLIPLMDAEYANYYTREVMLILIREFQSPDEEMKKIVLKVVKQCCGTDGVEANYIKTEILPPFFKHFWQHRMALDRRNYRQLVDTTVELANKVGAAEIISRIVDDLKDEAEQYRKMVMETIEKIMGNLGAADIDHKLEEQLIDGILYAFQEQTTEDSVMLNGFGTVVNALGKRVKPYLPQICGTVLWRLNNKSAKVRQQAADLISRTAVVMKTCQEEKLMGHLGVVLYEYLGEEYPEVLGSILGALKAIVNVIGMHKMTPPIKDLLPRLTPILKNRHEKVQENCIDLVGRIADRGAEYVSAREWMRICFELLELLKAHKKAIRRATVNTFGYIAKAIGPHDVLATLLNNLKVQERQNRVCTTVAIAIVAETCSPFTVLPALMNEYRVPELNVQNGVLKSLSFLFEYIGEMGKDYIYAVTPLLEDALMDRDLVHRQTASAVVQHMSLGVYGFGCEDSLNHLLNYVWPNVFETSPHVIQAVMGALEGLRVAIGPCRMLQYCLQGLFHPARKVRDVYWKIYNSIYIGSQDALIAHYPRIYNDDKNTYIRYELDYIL
T1 sequence (Q15393 whole entry partner): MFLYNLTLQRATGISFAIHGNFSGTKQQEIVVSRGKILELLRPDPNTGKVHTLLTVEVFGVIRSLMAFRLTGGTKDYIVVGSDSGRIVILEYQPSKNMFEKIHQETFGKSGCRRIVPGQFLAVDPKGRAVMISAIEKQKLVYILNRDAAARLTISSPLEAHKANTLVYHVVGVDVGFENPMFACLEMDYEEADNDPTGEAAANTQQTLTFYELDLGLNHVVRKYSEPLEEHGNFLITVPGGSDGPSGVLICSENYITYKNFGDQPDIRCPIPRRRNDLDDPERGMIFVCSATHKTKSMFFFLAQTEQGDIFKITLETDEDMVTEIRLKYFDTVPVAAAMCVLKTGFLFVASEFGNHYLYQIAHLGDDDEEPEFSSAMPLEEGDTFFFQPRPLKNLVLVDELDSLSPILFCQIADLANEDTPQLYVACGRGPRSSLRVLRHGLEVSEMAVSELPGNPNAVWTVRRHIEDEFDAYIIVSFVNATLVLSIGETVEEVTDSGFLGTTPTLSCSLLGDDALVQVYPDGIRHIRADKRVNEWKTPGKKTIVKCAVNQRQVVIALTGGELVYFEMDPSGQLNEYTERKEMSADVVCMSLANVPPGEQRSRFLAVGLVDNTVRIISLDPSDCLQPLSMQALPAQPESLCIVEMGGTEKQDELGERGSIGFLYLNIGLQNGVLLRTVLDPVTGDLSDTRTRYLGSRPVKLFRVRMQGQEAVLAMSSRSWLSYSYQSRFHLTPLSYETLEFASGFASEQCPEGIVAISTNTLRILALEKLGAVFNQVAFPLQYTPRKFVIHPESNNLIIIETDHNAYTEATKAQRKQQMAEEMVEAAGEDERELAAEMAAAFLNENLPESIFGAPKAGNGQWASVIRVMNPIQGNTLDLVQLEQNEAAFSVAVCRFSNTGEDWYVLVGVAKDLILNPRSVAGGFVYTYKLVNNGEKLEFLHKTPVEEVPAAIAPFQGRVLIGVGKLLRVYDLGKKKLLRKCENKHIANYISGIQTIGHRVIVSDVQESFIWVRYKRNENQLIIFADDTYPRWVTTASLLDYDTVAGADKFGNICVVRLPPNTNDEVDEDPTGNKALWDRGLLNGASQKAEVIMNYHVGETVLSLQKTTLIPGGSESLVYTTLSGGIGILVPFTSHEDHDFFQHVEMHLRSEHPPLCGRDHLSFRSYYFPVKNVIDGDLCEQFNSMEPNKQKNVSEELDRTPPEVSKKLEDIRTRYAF
T1 sequence (Q9BWJ5 whole entry partner): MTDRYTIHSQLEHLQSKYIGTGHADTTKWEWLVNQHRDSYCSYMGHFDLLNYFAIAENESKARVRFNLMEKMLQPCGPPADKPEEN

On to `C=CC(=O)N1[C@H](c2ccc3c(c2)OCO3)c2[nH]c3ccccc3c2C[C@H]1C(=O)N1CCOCC1` [WX-02-23, 1-((1R,3S)-1-(benzo[d][1,3]dioxol-S-yl)-3-(morpholine-4-carbonyl)-1,3,4,9-tetrahydro-2H-pyrido [3,4-b]indol-2-yl)prop-2-en-1-one], for which the “engagement of PHF5A_C26” value in assay [1] is on record as “did not engage”. Besides, the “SF3B1 interactions (DDX42 association)” value in assay [2] is reported as “much greater extent”.
Consider `CC#CC(=O)N1C[C@H](c2ccc(Br)cc2)[C@@H]1C(=O)Nc1cccc2cccnc12` [MY-45B, (2R,3S)-3-(4-bromophenyl)-1-(but-2-ynoyl)-N-(quinolin-8-yl)azetidine-2-carboxamide], for which the “SIINFEKL presentation after acid wash” value in assay [3] is “time- and concentration-dependent reduction in SIINFEKL presentation”.
